Reference: PubChem BioAssay AID1259408 (Genetic Toxicology Data Bank (GENE-TOX), 2018)
Calls of active or inactive are those of the source. No rule for the calls is given here.

Test system: GENE-TOX genotoxicity assays, various organisms and cells
Assay: GENE-TOX mutagenicity studies
Details: for call: Assay Type: In vivo carcinogenicity studies, Assay Code: CCG+
[1] = Species/Cell Type: Nonhuman, Evaluation Type: Evaluation A (Pre-1980)
[2] = Species/Cell Type: Salmonella typhimurium (one or more of the five standard strains: TA98, TA100, TA1535, TA1537, and TA1538), Assay Type: Histidine reverse gene mutation, Ames assay, Assay Code: SAL+, Evaluation Type: Evaluation A (Pre-1980)
[3] = Species/Cell Type: Schizosaccharomyces pombe, Assay Type: Reverse gene mutation, Assay Code: YEZ+, Evaluation Type: Evaluation A (Pre-1980)
[4] = Species/Cell Type: Nonhuman, Assay Type: Sister-chromatid exchange (SCE) in vitro, Assay Code: SC2+, Evaluation Type: Evaluation B (Post-1980)

In the case of CCOS(C)(=O)=O, the mutagenic call (Species/Cell Type: Arabidopsis species, Assay Type: Gene mutation, Assay Code: ARM+D, Dose Response: With dose response, Evaluation Type: Evaluation A (Pre-1980)) is reported as “active; positive”, the mutagenic call (Species/Cell Type: Aspergillus nidulans, Assay Type: Forward gene mutation, Assay Code: ASF+, Evaluation Type: Evaluation A (Pre-1980)) is reported as “active; positive” and the mutagenic call (Species/Cell Type: Aspergillus nidulans, Assay Type: Reverse gene mutation, Assay Code: ASR+, Evaluation Type: Evaluation A (Pre-1980)) is reported as “active; positive”. For the same compound, the mutagenic call (Species/Cell Type: Chinese hamster lung (V79) cells, Assay Type: Forward gene mutation at the HPRT or ouabain locus, Assay Code: V79+, Evaluation Type: Evaluation A (Pre-1980)) was “active; positive”, the mutagenic call (Species/Cell Type: Chinese hamster ovary (CHO) cells, Assay Type: Forward gene mutation at the HPRT locus, Assay Code: CHO+D, Dose Response: With dose response, Evaluation Type: Evaluation A (Pre-1980)) was “active; positive” and the mutagenic call (Species/Cell Type: Drosophila melanogaster, Assay Type: Sex-linked recessive lethal gene mutation, Assay Code: SRL+, Evaluation Type: Evaluation A (Pre-1980)) was “active; positive”. For the same compound, the mutagenic call (Species/Cell Type: Drosophila melanogaster, Sex: Male, Assay Type: Heritable translocation test, chromosome aberrations, Assay Code: DHT+, Evaluation Type: Evaluation A (Pre-1980)) was “active; positive”, the mutagenic call (Species/Cell Type: Escherichia coli WP2, Assay Type: Tryptophan reverse gene mutation, Assay Code: WP2+, Evaluation Type: Evaluation A (Pre-1980)) was “active; positive” and the mutagenic call (Species/Cell Type: Escherichia coli WP2 UVRA, Assay Type: Tryptophan reverse gene mutation, Assay Code: WPU+, Evaluation Type: Evaluation A (Pre-1980)) was “active; positive”. For the same compound, the mutagenic call (Species/Cell Type: Escherichia coli polA (W3119 vs P3478), Assay Type: Rec-assay, DNA effects (bacterial DNA repair), Assay Code: RE1+, Evaluation Type: Evaluation A (Pre-1980)) was “active; positive”, the mutagenic call (Species/Cell Type: F1 mouse, Sex: Male, Assay Type: Sperm morphology, Assay Code: SPF+, Evaluation Type: Evaluation A (Pre-1980)) was “active; positive” and the mutagenic call (Species/Cell Type: Glycine max (soybean), Assay Type: Gene mutation, Assay Code: GLM+, Evaluation Type: Evaluation A (Pre-1980)) was “active; positive”. For the same compound, the mutagenic call (Species/Cell Type: Hordeum vulgare (barley), Assay Type: Chromosome aberrations, Assay Code: HOC+D, Dose Response: With dose response, Evaluation Type: Evaluation A (Pre-1980)) was “active; positive”, the mutagenic call (Species/Cell Type: Hordeum vulgare (barley), Assay Type: Gene mutation, Assay Code: HOM+D, Dose Response: With dose response, Evaluation Type: Evaluation A (Pre-1980)) was “active; positive” and the mutagenic call (Species/Cell Type: Human diploid fibroblasts, Assay Type: Unscheduled DNA synthesis (UDS) in vitro, DNA effects, Assay Code: UDH+D, Dose Response: With dose response, Evaluation Type: Evaluation A (Pre-1980)) was “active; positive”. For the same compound, the mutagenic call (Species/Cell Type: Human lymphocytes, Assay Type: Micronucleus test in vitro, chromosome aberrations, Assay Code: MN7+, Evaluation Type: Evaluation A (Pre-1980)) was “active; positive”, the mutagenic call (Species/Cell Type: Human lymphocytes, Assay Type: Sister-chromatid exchange (SCE) in vitro, Assay Code: SCL+, Evaluation Type: Evaluation A (Pre-1980)) was “active; positive” and the mutagenic call (Species/Cell Type: Human, Assay Type: Sister-chromatid exchange (SCE) in vitro, Assay Code: SC1+D, Dose Response: With dose response, Evaluation Type: Evaluation A (Pre-1980)) was “active; positive”. For the same compound, the mutagenic call (Species/Cell Type: Mammalian germ cells, Sex: Male, Assay Type: Chromosome aberrations in vivo, Assay Code: CY9T, Evaluation Type: Evaluation A (Pre-1980)) was “no conclusion”, the mutagenic call (Species/Cell Type: Mammalian polychromatic erythrocytes, Assay Type: Micronucleus test, chromosome aberrations, Assay Code: MNT+, Evaluation Type: Evaluation A (Pre-1980)) was “active; positive” and the mutagenic call (Species/Cell Type: Mouse germ cells, Sex: Male, Assay Type: Unscheduled DNA synthesis (UDS) in vivo, DNA effects, Assay Code: UDT+, Evaluation Type: Evaluation A (Pre-1980)) was “active; positive”. For the same compound, the mutagenic call (Species/Cell Type: Mouse lymphoma (L5178Y) cells, Assay Type: Forward gene mutation at the thymidine kinase (TK) locus, chromosome aberrations, Assay Code: L51+, Evaluation Type: Evaluation A (Pre-1980)) was “active; positive”, the mutagenic call (Species/Cell Type: Mouse, Sex: Female, Assay Type: Spot test, gene mutation, Assay Code: MST+, Evaluation Type: Evaluation A (Pre-1980)) was “active; positive” and the mutagenic call (Species/Cell Type: Mouse, Sex: Male, Assay Type: Heritable translocation test, chromosome aberrations, Assay Code: HTT+D, Dose Response: With dose response, Evaluation Type: Evaluation A (Pre-1980)) was “active; positive”. The mutagenic call (Species/Cell Type: Mouse, Sex: Male, Assay Type: Specific locus test, gene mutation, Assay Code: SLT+, Evaluation Type: Evaluation A (Pre-1980)) was “active; positive”, the mutagenic call (Species/Cell Type: Mouse, Sex: Male, Assay Type: Sperm morphology, Assay Code: SPI+, Evaluation Type: Evaluation A (Pre-1980)) was “active; positive” and the mutagenic call (Species/Cell Type: Neurospora crassa, Assay Type: Aneuploidy, chromosome aberrations, Assay Code: NEN-, Evaluation Type: Evaluation A (Pre-1980)) was “inactive; negative”. The mutagenic call (Species/Cell Type: Neurospora crassa, Assay Type: Forward gene mutation, Assay Code: NEF+, Evaluation Type: Evaluation A (Pre-1980)) was “active; positive”, the mutagenic call (Species/Cell Type: Neurospora crassa, Assay Type: Reverse gene mutation, Assay Code: NER+, Evaluation Type: Evaluation A (Pre-1980)) was “active; positive” and the mutagenic call (Species/Cell Type: Nonhuman bone marrow, Assay Type: Chromosome aberrations, in vivo, Assay Code: CY#+, Evaluation Type: Evaluation A (Pre-1980)) was “active; positive”. The call [1] was “active; positive”, the mutagenic call (Species/Cell Type: Nonhuman, Assay Type: Sister-chromatid exchange (SCE) in vitro, Assay Code: SC2+D, Dose Response: With dose response, Evaluation Type: Evaluation A (Pre-1980)) was “active; positive” and the mutagenic call (Species/Cell Type: Nonhuman, Assay Type: Sister-chromatid exchange (SCE) in vivo, Assay Code: SC3+D, Dose Response: With dose response, Evaluation Type: Evaluation A (Pre-1980)) was “active; positive”. The mutagenic call (Species/Cell Type: Plant, Assay Type: Micronucleus test, chromosome aberrations, Assay Code: MNP-, Evaluation Type: Evaluation A (Pre-1980)) was “inactive; negative”, the mutagenic call (Species/Cell Type: Rodents, Sex: Male, Assay Type: Dominant lethal test, Assay Code: DLT+D, Dose Response: With dose response, Evaluation Type: Evaluation A (Pre-1980)) was “active; positive” and the mutagenic call (Species/Cell Type: Saccharomyces cerevisiae, Assay Type: Aneuploidy, chromosome aberrations, Assay Code: YEN+, Evaluation Type: Evaluation A (Pre-1980)) was “active; positive”. For the same compound, the mutagenic call (Species/Cell Type: Saccharomyces cerevisiae, Assay Type: Forward gene mutation, Assay Code: YEF+, Evaluation Type: Evaluation A (Pre-1980)) was “active; positive”, the mutagenic call (Species/Cell Type: Saccharomyces cerevisiae, Assay Type: Mitotic recombination or gene conversion, Assay Code: YEC+, Evaluation Type: Evaluation A (Pre-1980)) was “active; positive” and the mutagenic call (Species/Cell Type: Saccharomyces cerevisiae, Assay Type: Mitotic recombination or gene conversion, Assay Code: YEH+, Evaluation Type: Evaluation A (Pre-1980)) was “active; positive”. The mutagenic call (Species/Cell Type: Saccharomyces cerevisiae, Assay Type: Reverse gene mutation, Assay Code: YER+, Evaluation Type: Evaluation A (Pre-1980)) was “active; positive”, the mutagenic call [2] was “active; positive” and the mutagenic call (Species/Cell Type: Salmonella typhimurium, Escherichia coli, Serratia marcesens, Neurospora crassa, Saccharomyces cerevisiae, Chinese hamst, Assay Type: Forward and reverse gene mutation, lethal mutation, mitotic recombination and gene conversion, DNA effects, host-mediate, Assay Code: HM8+, Evaluation Type: Evaluation A (Pre-1980)) was “active; positive”. For the same compound, the mutagenic call (Species/Cell Type: Schizosaccharomyces pombe, Assay Type: Forward gene mutation, Assay Code: YEY+, Evaluation Type: Evaluation A (Pre-1980)) was “active; positive”, the mutagenic call [3] was “active; positive” and the mutagenic call (Species/Cell Type: Syrian hamster embryo (SA7/SHE) cells, Assay Type: Cell transformation, viral enhanced, Assay Code: CT7+, Evaluation Type: Evaluation A (Pre-1980)) was “active; positive”. For the same compound, the mutagenic call (Species/Cell Type: Syrian hamster embryo (SHE) cells, Assay Type: Cell transformation, clonal assay, Assay Code: CTC+, Evaluation Type: Evaluation A (Pre-1980)) was “active; positive”, the mutagenic call (Species/Cell Type: Syrian hamster embryo (SHE) cells, Assay Type: Cell transformation, focus assay, Assay Code: CTF+, Evaluation Type: Evaluation A (Pre-1980)) was “active; positive” and the mutagenic call (Species/Cell Type: Tradescantia species, Assay Type: Chromosome aberrations, Assay Code: TRC+D, Dose Response: With dose response, Evaluation Type: Evaluation A (Pre-1980)) was “active; positive”. For the same compound, the mutagenic call (Species/Cell Type: Tradescantia species, Assay Type: Gene mutation, Assay Code: TRM+D, Dose Response: With dose response, Evaluation Type: Evaluation A (Pre-1980)) was “active; positive”, the mutagenic call (Species/Cell Type: Vicia faba, Assay Type: Chromosome aberrations, Assay Code: VIC+D, Dose Response: With dose response, Evaluation Type: Evaluation A (Pre-1980)) was “active; positive” and the mutagenic call (Species/Cell Type: Zea mays (corn), Assay Type: Gene mutation, Assay Code: ZEM+D, Dose Response: With dose response, Evaluation Type: Evaluation A (Pre-1980)) was “active; positive”.
With Nc1ccc(C(=O)O)c(O)c1 the mutagenic call (Species/Cell Type: Escherichia coli polA (W3119 vs P3478), Assay Type: Rec-assay, DNA effects (bacterial DNA repair), Assay Code: RE1T, Evaluation Type: Evaluation A (Pre-1980)) was “no conclusion”.
For CC(C)CCC[C@@H](C)[C@H]1CC[C@H]2[C@@H]3CC=C4C[C@@H](OC(=O)Cc5ccc(N(CCCl)CCCl)cc5)CC[C@]4(C)[C@H]3CC[C@]12C, the call [1] was “active; positive”.
For CN(C)C=O, the mutagenic call (Species/Cell Type: Mammalian polychromatic erythrocytes, Assay Type: Micronucleus test, chromosome aberrations, Assay Code: MNTT, Evaluation Type: Evaluation A (Pre-1980)) was “no conclusion”, the mutagenic call (Species/Cell Type: Mouse, Sex: Male, Assay Type: Sperm morphology, Assay Code: SPI-, Evaluation Type: Evaluation A (Pre-1980)) was “inactive; negative” and the mutagenic call [4] was “active; positive”. The mutagenic call (Species/Cell Type: Rat primary hepatocytes, Assay Type: Unscheduled DNA synthesis (UDS) in vitro, DNA effects, Assay Code: UDP-, Evaluation Type: Evaluation A (Pre-1980)) was “inactive; negative” and the mutagenic call (Species/Cell Type: Syrian hamster embryo (SHE) cells, Assay Type: Cell transformation, clonal assay, Assay Code: CTC-, Evaluation Type: Evaluation A (Pre-1980)) was “inactive; negative”.
CC(C)(C)N1CC1 was tested, and the mutagenic call [3] was “active; positive”.
For NS(=O)(=O)c1ccccc1C(=O)O, the mutagenic call (Species/Cell Type: Mammalian polychromatic erythrocytes, Assay Type: Micronucleus test, chromosome aberrations, Assay Code: MNTT, Evaluation Type: Evaluation B (Post-1980)) was “no conclusion”.
COc1ccc(N2CCN(c3ccc([N+](=O)[O-])c4no[n+]([O-])c34)CC2)cc1 was tested, and the mutagenic call [2] was “active; positive”.
In the case of C=COC=C, the mutagenic call [4] is reported as “active; positive”.
In the case of COc1cc(O)c2c(c1)C(=O)c1cc(C)cc(O)c1C2=O, the mutagenic call (Species/Cell Type: Salmonella typhimurium (one or more of the five standard strains: TA98, TA100, TA1535, TA1537, and TA1538), Assay Type: Histidine reverse gene mutation, Ames assay, Assay Code: SAL+*, Activation: With metabolic activation, Evaluation Type: Evaluation A (Pre-1980)) is reported as “active; positive”.
